What was measured:
[1] = target: Beta-3 adrenergic receptor (Homo sapiens, UniProt P13945); experiment: DRUGMATRIX: Adrenergic beta3 radioligand binding (ligand: [125I] Cyanopindolol); type: cell membranes, HEK293, Membrane; settings: Not Active = under 50% inhibition at 10 µM
[2] = DRUGMATRIX: Calcium Channel Type L, Benzothiazepine radioligand binding (ligand: [3H] Diltiazem); type: cell membranes, Rattus norvegicus, Wistar, Brain, Membrane; settings: Not Active = under 50% inhibition at 10 µM
[3] = DRUGMATRIX: Calcium Channel Type L, Dihydropyridine radioligand binding (ligand: [3H] Nitrendipine); type: cell membranes, Rattus norvegicus, Wistar, Cerebral cortex, Membrane; settings: Not Active = under 50% inhibition at 10 µM
[4] = target: 5-hydroxytryptamine receptor 4 (Cavia porcellus, UniProt O70528); type: cell membranes, Dunkin-Hartley, Striatum, Membrane; also: in other assays of this panel Not Active means under 50% inhibition at 10 µM
[5] = target: T1, Vasoactive intestinal polypeptide receptor 1 (Homo sapiens, UniProt P32241); type: cell membranes, Membrane; settings: ht-29; also: in other assays of this panel Not Active means under 50% inhibition at 10 µM
T1 sequence (P32241 whole entry): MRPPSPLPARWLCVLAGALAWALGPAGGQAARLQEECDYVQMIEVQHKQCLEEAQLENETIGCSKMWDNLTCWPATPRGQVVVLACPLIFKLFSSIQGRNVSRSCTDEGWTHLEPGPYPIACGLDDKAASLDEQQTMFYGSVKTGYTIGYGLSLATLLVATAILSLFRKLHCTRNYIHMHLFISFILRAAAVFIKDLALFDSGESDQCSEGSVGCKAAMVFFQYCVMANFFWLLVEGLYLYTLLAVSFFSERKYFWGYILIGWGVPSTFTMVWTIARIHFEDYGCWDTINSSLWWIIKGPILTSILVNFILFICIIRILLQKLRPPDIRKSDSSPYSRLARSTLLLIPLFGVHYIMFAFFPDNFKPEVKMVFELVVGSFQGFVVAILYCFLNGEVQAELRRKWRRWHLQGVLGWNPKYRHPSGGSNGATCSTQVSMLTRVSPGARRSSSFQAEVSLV

[6] = target: T2, C-X-C chemokine receptor type 2 (Homo sapiens, UniProt P25025); type: cell membranes, Membrane; settings: cho-k1; also: in other assays of this panel Not Active means under 50% inhibition at 10 µM
T2 sequence (P25025 whole entry): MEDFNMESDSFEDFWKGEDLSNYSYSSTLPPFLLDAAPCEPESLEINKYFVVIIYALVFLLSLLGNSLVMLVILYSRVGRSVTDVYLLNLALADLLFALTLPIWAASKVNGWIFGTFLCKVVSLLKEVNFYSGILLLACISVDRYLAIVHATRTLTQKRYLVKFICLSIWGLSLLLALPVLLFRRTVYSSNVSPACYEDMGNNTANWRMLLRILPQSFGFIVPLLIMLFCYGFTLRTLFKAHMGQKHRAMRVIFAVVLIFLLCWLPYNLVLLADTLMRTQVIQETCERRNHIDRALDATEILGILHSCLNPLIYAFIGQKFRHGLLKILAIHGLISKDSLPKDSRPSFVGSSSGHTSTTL

Beta-3 adrenergic receptor, sequence (P13945 whole entry): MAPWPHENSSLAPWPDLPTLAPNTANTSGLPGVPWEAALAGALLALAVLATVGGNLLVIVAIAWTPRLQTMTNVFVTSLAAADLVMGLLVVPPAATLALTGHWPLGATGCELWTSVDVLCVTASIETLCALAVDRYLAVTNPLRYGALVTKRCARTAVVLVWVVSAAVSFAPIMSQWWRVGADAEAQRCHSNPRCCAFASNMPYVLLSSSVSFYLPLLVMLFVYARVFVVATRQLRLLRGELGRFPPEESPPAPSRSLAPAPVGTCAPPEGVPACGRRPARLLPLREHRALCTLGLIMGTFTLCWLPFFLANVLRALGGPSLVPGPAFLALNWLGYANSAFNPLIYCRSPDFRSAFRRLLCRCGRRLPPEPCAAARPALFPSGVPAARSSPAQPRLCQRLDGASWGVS
5-hydroxytryptamine receptor 4, sequence (O70528 whole entry): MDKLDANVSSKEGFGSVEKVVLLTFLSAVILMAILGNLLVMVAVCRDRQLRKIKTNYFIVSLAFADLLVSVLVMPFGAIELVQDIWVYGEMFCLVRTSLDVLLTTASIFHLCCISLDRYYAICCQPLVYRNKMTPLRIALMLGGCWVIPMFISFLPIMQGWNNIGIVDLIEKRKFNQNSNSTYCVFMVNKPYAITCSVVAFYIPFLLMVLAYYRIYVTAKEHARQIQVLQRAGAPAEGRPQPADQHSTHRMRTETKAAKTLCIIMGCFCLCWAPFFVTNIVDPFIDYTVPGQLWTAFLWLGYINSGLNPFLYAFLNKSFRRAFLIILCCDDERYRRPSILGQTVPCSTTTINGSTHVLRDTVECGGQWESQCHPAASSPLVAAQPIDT

Compound	IC50 ([1]; hek293)	IC50 [2]	Ki [2]	IC50 [3]	Ki [3]	IC50 [4]	IC50 [5]	IC50 [6]	IC50 ([1]; read-out: IC50) [µM]	Ki ([1]; read-out: Ki) [µM]
CN1C[C@@H]2C[C@H]1CN2c1cc2c(cc1F)c(=O)c(C(=O)O)cn2C1CC1 [DANOFLOXACIN]	Not Active	Not Active	Not Active	Not Active	Not Active	Not Active	Not Active	Not Active	–	–
COc1cccc2c1C(=O)c1c(O)c3c(c(O)c1C2=O)C[C@@](O)(C(C)=O)C[C@@H]3O[C@H]1C[C@H](N)[C@H](O)[C@H](C)O1 [DAUNORUBICIN]	Not Active	Not Active	Not Active	Not Active	Not Active	Not Active	Not Active	Not Active	–	–
O=C(O)c1cc(-c2ccc(F)cc2F)ccc1O [DIFLUNISAL]	Not Active	Not Active	Not Active	Not Active	Not Active	Not Active	Not Active	Not Active	–	–
C[S+](C)[O-] [DIMETHYL SULFOXIDE]	Not Active	Not Active	Not Active	Not Active	Not Active	Not Active	Not Active	Not Active	–	–
CC1=NN(c2ccccc2)C(=O)C1 [EDARAVONE]	Not Active	Not Active	Not Active	Not Active	Not Active	Not Active	Not Active	Not Active	–	–
CC(C)C[C@H]1C(=O)N2CCC[C@H]2[C@]2(O)O[C@](NC(=O)[C@@H]3C=C4c5cccc6[nH]cc(c56)C[C@H]4N(C)C3)(C(C)C)C(=O)N12 [ERGOCRYPTINE]	–	Not Active	Not Active	Not Active	Not Active	Not Active	Not Active	Not Active	2.5	1.87
C[C@]12CC[C@@H]3c4ccc(O)cc4CC[C@H]3[C@@H]1C[C@@H](O)[C@@H]2O [ESTRIOL]	Not Active	Not Active	Not Active	Not Active	Not Active	Not Active	Not Active	Not Active	–	–
C#C[C@]1(O)CC[C@H]2[C@@H]3CCC4=CC(=O)CC[C@]4(C)[C@H]3CC[C@@]21C [ETHISTERONE]	Not Active	Not Active	Not Active	Not Active	Not Active	Not Active	Not Active	Not Active	–	–
CC(O)(P(=O)(O)O)P(=O)(O)O [ETIDRONIC ACID]	Not Active	Not Active	Not Active	Not Active	Not Active	Not Active	Not Active	Not Active	–	–
CC(C)(C(=O)O)c1ccc(C(O)CCCN2CCC(C(O)(c3ccccc3)c3ccccc3)CC2)cc1 (stereo not given) [FEXOFENADINE]	Not Active	Not Active	Not Active	Not Active	Not Active	Not Active	Not Active	Not Active	–	–
CN1CCN(c2c(F)cc3c(=O)c(C(=O)O)cn(CCF)c3c2F)CC1 [FLEROXACIN]	Not Active	Not Active	Not Active	Not Active	Not Active	Not Active	Not Active	Not Active	–	–
O=c1[nH]c(=O)n([C@H]2C[C@H](O)[C@@H](CO)O2)cc1F [FLOXURIDINE]	Not Active	Not Active	Not Active	Not Active	Not Active	Not Active	Not Active	Not Active	–	–
COC(=O)Nc1nc2cc(C(=O)c3ccc(F)cc3)ccc2[nH]1 [FLUBENDAZOLE]	Not Active	Not Active	Not Active	Not Active	Not Active	Not Active	Not Active	Not Active	–	–

Source: ChEMBL document CHEMBL1909046, “DrugMatrix in vitro pharmacology data”
